Test results as given in paper PMC5007466, “VCP recruitment to mitochondria causes mitophagy impairment and neurodegeneration in models of Huntington's disease” (Nature Communications, 2016).

Columns and labels:
[1] = system: R6/2 mice; assay: VCP mitochondrial level, R6/2 mouse striatum; format: in vivo; conditions: R6/2, 3 mg kg^−1 per day from 5 to 9 weeks versus TAT, n=6
Experimental: Cells were washed with cold PBS and incubated on ice for 30 min in a lysis buffer (250 mM sucrose, 20 mM HEPES-NaOH, pH 7.5, 10 mM KCl, 1.5 mM MgCl2, 1 mM EDTA, protease inhibitor cocktail and phosphatase inhibitor cocktail). Mouse brains were minced and homogenized in the lysis buffer and then placed on ice for 30 min. Collected cells or tissue were disrupted 20 times by repeated aspiration through a 25-gauge needle, followed by a 30-gauge needle. The homogenates were spun at 800 g for 10 min at 4 °C, and the resulting supernatants were spun at 10,000 g for 20 min at 4 °C. The pellets were washed with lysis buffer and spun at 10,000 g again for 20 min at 4 °C. The final pellets were suspended in lysis buffer containing 1% Triton X-100 and were mitochondrial-rich lysate fractions. The supernatant was centrifuged at 100,000 g, 4 °C, for 1 h, the pellets were suspended in lysis buffer containing 1% Triton X-100 as ER fractions. The final supernatant was cytosolic fractions. The mitochondrial proteins VDAC, the ER protein WFS1 and the cytosolic protein Enolase were used as loading controls for mitochondrial, ER and cytosolic fractions, respectively.
Male R6/2 mice and their wt littermates (4 weeks old) were purchased from Jackson Laboratories (Bar Harbor, ME; B6CBA-TgN (HD exon 1)62; JAX stock number: 006494). […]
(§1) Protein concentrations were determined by Bradford assay. […]

[2] = system: HdhQ111 mouse striatal cells; assay: HMGB1 release after serum withdrawal; format: cell-based; conditions: 24 h serum withdrawal, 3 μM
Experimental: HdhQ7 and Q111 mouse striatal cells were treated with the HV-3 peptide or the control peptide TAT (3 μM, each) in an FBS-free DMEM medium or in DMEM containing 10% serum for 24 h. Medium from the cultured cells was harvested. Proteins from the medium were purified using Amicon Ultra 0.5 ml centrifugal filters (Millipore). HMGB1 release into the medium was then analysed by Western blotting with anti-HMGB1 antibody. In parallel, cell death was determined by measuring LDH release into the culture medium, using LDH-Cytotoxicity Assay Kit II (Roche, USA) by following the manufacturer's instruction.

[3] = system: wild-type mouse striatal cells; assay: GFP-LC3B association with mitochondria in cells expressing Flag-VCP; format: cell-based; conditions: wt striatal cells, 36 h
Experimental: Figure 5 Treatment of HV-3 reduces excessive mitophagy in HD cell cultures and HD mouse brains. (a) HdhQ7 and HdhQ111 cells were treated with control siRNA (con) or VCP siRNA (siVCP) for 48 h. Mitochondria were isolated and LC3 mitochondrial levels were determined by WB. Representative blots are from three independent experiments. The quantitation of LC3 II levels on mitochondria is provided on the right. VADC was used as a loading control. (b) Flag-VCP and GFP-LC3B were co-transfected into wild-type striatal cells. Mitochondria were isolated after 36 h of transfection. The GFP-LC3B levels on mitochondria were examined by WB. VDAC was used as a loading control. Representative blots are from three independent experiments. Histogram: quantitation of GFP-LC3B mitochondrial protein level. HdhQ7 and HdhQ111 cells were treated with control peptide TAT or peptide HV-3 (3 uM/day for 3 days). (c) HdhQ111 cells were transfected with GFP-LC3B for 24 h. The number of GFP-LC3B puncta was quantitated and shown in the histogram. […] (d) Enzyme activity of lysosomal Cathepsin B was measured using a Cathepsin B assay kit. […] (e) Mitochondrial mass was measured by the fluorescent density of Mitotracker green. […] Histogram: the number of mitophagosomes per 100 μm^2 was counted and quantitated. Fifteen random areas in the striatum of each animal were analyzed. […]
as §1

[4] = system: wt mice (R6/2 littermates); assay: Motor ability, body weight, life span of wt littermates; format: in vivo, mouse; conditions: 3 mg kg^−1 per day, 5–13 weeks of age
Experimental: Male hemizygous R6/2 mice (Tg) and their age-matched wt littermates (5-week-old) were implanted with a 28-day osmotic pump (Alzet, Cupertino CA) containing TAT control peptide or HV-3 peptide, which delivered peptides to the mice at a rate of 3 mg kg^−1 per day. The first pump was implanted subcutaneously in the back of 5-week-old mice between the shoulders and replaced once, after 4 weeks.
(§2) Gross locomotor activity was assessed in R6/2 mice and age-matched wt littermates at the ages of 13 weeks and in YAC128 mice and age-matched wt littermates at the ages of 2, 3, 6, 9, and 12 months. In an activity chamber (Omnitech Electronics, Inc), mice were placed in the center of the chamber and allowed to explore while being tracked by an automated beam system (Vertax, Omnitech Electronics Inc). Distance moved, horizontal, vertical, and rearing activities were recorded. Because R6/2 mice were sensitive to changes in environment and handling, we only conducted one-hour locomotor activity analysis for R6/2 mice and wt littermates. We performed 24 h of locomotor activity analysis for YAC128 mice and their wt littermates.
The body weight and survival rate of HD mice and wt littermates were recorded throughout the study period.

[5] = system: YAC128 mice; assay: General motility, YAC128 (24 h locomotor activity); format: in vivo, mouse; conditions: YAC128, 3 mg/kg/day from 3 months; from 6 to 12 months of age, n=15–20
Description: YAC128 (FVB-Tg(YAC128)53Hay/J, JAX stock number: 004938) breeders (FVB/N genetic background) were purchased from Jackson Laboratories. The YAC128 mice contain a full-length human huntingtin gene modified with a 128 CAG repeat expansion in exon 1. The mice were mated, bred and genotyped in the animal facility of Case Western Reserve University. Male mice at the ages of 2, 3, 6, 9 and 12 months were used in the study.
(§3) YAC128 mice (Tg) and their age-matched wt littermates were implanted with an osmotic pump containing TAT control peptide or HV-3 peptide (3 mg/kg/day, each) starting from the age of 3 months. The pump was replaced once every month. By the age of 12 months, the treatments were terminated and the mouse samples were harvested for analysis.
as §2, with “We performed 24 h of locomotor activity analysis for YAC128 mice and their wt littermates.” left out

[6] = system: YAC128 mice; assay: DARPP-32 protein level in YAC128 striatal extracts; format: in vivo, mouse; conditions: 3 mg/kg/day, n=6
Experimental: as §3
Protein concentrations were determined by Bradford assay. Protein was resuspended in Laemmli buffer, loaded on SDS–PAGE, and transferred onto nitrocellulose membranes. Membranes were probed with the indicated antibodies, followed by visualization with ECL. Representative blots have been cropped for presentation. Images of full-size blots are presented in Supplementary Fig. 9.

## CSCC[C@H](NC(=O)[C@@H](NC(=O)[C@H](CC(C)C)NC(=O)[C@@H](NC(=O)[C@H](Cc1c[nH]cn1)NC(=O)CCCCCNC(=O)[C@H](CCCNC(=N)N)NC(=O)[C@H](CCCNC(=N)N)NC(=O)[C@H](CCCNC(=N)N)NC(=O)[C@H](CCC(N)=O)NC(=O)[C@H](CCCNC(=N)N)NC(=O)[C@H](CCCNC(=N)N)NC(=O)[C@H](CCCCN)NC(=O)[C@H](CCCCN)NC(=O)[C@H](CCCNC(=N)N)NC(=O)CNC(=O)[C@@H](N)Cc1ccc(O)cc1)C(C)C)C(C)C)C(=O)N[C@@H](CS)C(=O)N[C@@H](C)C(=O)N[C@H](C(N)=O)[C@@H](C)O [HV-3]
[1]
  VCP translocation to mitochondria in striatum: suppressed the VCP translocation to mitochondria
[2]
  HMGB1 release: reduced the release of high mobility group box 1 (HMGB1)
[3]
  GFP-LC3B association with mitochondria: could be inhibited by treatment with HV-3
[4]
  motor ability, body weight, life span of wt mice: no effects on motor ability, body weight, or life span in wt mice
[5]
  general movement activity: improved general movement activity
[6]
  DARPP-32 protein level: significantly increased DARPP-32 levels in the two mouse models
